In US10647679B2, “N-methyl-D-aspartate receptor (NMDAR) potentiators, pharmaceutical compositions, and uses related thereto” (Emory University, priority 2015, dated 2020):
Where two headings read alike, the source gives them in different places. Values belong to the molecule of their own block, whether it stands above or below them.

What was measured:
Format in all cases: cell-based
[1] = biological target: T1, recombinant rat GluN1/GluN2C (Rattus norvegicus, UniProt P35439+Q00961); assay: Two-electrode voltage-clamp (TEVC) recordings in Xenopus laevis oocytes, GluN1/GluN2C
T1 construct: expressed in transfected cells; host or cells: Xenopus laevis oocytes (Ecocyte) injected with in vitro transcribed cRNA
Protocol: (§1) Data are from between 3-26 oocytes from 2-5 frogs for each compound and receptor tested.
(§2) Two-electrode voltage-clamp recordings were performed in Xenopus laevis oocytes (Ecocyte) expressing recombinant rat GluN1/GluN2A, GluN1/GluN2B, GluN1/GluN2C, GluN1/GluN2D. cRNA was transcribed in vitro (Ambion), diluted with nuclease free water, and injected at a ratio of 1:2 GluN1:GluN2 (5-10 ng total cRNA). The oocytes were kept in Barth's solution comprised of (in mM) 88 NaCl, 5 Tris-HCl, 2.4 NaHCO3, 1 KCl, 0.84 MgSO4, 0.41 CaCl2, and 0.33 Ca(NO3)2 at pH 7.4 at 15-17° C. for two to five days before experiments. Oocytes were placed into a perfusion chamber and continually washed with recording solution containing (in mM) 90 NaCl, 1.0 KCl, 0.5 BaCl2, 0.005 EDTA, and 10 HEPES at pH 7.4 (23° C.). Voltage clamp recordings were conducted at a holding potential of −40 mV. All compounds were made as 20 mM stock solutions in DMSO and dissolved to reach the final concentration in recording solution. Final DMSO content was 0.05-0.5% (vol/vol). Some oocytes expressing GluN1/GluN2A were pretreated with […] BAPTA-AM for 10 minutes or injected with […] of 2 mM K-BAPTA to prevent gradual run-up of the current response.

[2] = biological target: T2, recombinant rat GluN1/GluN2B (Rattus norvegicus, UniProt P35439+Q00960); assay: Two-electrode voltage-clamp (TEVC) recordings in Xenopus laevis oocytes, GluN1/GluN2B
T2 construct: expressed in transfected cells; host or cells: Xenopus laevis oocytes (Ecocyte) injected with in vitro transcribed cRNA
T2 sequence (Q00960 27-1482, other chains not shown): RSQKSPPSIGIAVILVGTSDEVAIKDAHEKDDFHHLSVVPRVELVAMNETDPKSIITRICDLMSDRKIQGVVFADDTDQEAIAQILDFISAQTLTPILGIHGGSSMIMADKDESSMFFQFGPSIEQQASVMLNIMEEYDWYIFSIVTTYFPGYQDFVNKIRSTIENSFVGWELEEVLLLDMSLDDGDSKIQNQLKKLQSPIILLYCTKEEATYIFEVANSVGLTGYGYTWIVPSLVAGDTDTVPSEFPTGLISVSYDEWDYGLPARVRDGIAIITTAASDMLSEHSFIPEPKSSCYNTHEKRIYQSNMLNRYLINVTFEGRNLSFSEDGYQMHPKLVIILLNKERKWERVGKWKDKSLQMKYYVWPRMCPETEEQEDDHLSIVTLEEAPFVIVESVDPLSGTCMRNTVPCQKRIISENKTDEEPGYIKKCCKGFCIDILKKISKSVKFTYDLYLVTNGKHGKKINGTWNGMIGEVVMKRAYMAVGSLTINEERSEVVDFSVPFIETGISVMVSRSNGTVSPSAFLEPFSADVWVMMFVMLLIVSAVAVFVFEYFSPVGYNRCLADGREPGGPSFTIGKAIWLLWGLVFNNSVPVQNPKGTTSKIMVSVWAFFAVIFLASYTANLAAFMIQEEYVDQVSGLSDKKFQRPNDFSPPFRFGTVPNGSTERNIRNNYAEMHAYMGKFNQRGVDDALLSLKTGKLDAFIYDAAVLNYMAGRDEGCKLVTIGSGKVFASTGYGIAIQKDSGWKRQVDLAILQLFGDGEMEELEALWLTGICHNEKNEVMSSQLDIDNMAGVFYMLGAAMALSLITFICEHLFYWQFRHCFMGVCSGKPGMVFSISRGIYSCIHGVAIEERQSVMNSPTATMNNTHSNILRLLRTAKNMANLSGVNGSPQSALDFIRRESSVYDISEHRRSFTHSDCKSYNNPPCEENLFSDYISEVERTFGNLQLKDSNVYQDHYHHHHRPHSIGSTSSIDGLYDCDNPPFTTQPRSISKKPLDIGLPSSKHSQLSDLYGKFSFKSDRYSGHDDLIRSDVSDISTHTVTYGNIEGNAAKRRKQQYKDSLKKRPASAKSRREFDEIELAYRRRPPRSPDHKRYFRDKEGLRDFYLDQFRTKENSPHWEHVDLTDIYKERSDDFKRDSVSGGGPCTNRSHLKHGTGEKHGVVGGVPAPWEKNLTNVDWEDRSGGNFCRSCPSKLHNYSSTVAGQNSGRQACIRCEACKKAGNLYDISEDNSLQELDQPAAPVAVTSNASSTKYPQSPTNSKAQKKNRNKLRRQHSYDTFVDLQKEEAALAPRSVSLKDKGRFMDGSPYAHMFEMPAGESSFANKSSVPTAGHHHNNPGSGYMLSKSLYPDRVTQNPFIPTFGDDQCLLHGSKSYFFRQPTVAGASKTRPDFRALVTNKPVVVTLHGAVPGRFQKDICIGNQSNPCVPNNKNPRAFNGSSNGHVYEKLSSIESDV
Protocol: as §1, §2

[3] = biological target: T3, recombinant rat GluN1/GluN2C (Rattus norvegicus, UniProt Q00961); assay: Two-electrode voltage-clamp (TEVC) recordings in Xenopus laevis oocytes, GluN1/GluN2C; conditions: for I30 μM/Icontrol (mean ± SEM, %) GluN2C: 30 μM compound, Tables 5-7
T3 construct: expressed in transfected cells; host or cells: Xenopus laevis oocytes (Ecocyte) injected with in vitro transcribed cRNA
Protocol: as §1, §2

[4] = biological target: T4, recombinant rat GluN1/GluN2B (Rattus norvegicus, UniProt Q00960); assay: Two-electrode voltage-clamp (TEVC) recordings in Xenopus laevis oocytes, GluN1/GluN2B; conditions: for I30 μM/Icontrol (mean ± SEM, %) GluN2B: 30 μM compound, Tables 5-7
T4 construct: expressed in transfected cells; host or cells: Xenopus laevis oocytes (Ecocyte) injected with in vitro transcribed cRNA
T4 sequence (Q00960 27-1482, other chains not shown): as above
Protocol: as §1, §2

[5] = biological target: T5, recombinant rat GluN1/GluN2D (Rattus norvegicus, UniProt Q62645); assay: Two-electrode voltage-clamp (TEVC) recordings in Xenopus laevis oocytes, GluN1/GluN2D; conditions: for I30 μM/Icontrol (mean ± SEM, %) GluN2D: 30 μM compound, Tables 5-7; for EC50 & Max Effect: 2D Max (%): Tables 11-13
T5 construct: expressed in transfected cells; host or cells: Xenopus laevis oocytes (Ecocyte) injected with in vitro transcribed cRNA
T5 sequence (Q62645 28-1323, other chains not shown): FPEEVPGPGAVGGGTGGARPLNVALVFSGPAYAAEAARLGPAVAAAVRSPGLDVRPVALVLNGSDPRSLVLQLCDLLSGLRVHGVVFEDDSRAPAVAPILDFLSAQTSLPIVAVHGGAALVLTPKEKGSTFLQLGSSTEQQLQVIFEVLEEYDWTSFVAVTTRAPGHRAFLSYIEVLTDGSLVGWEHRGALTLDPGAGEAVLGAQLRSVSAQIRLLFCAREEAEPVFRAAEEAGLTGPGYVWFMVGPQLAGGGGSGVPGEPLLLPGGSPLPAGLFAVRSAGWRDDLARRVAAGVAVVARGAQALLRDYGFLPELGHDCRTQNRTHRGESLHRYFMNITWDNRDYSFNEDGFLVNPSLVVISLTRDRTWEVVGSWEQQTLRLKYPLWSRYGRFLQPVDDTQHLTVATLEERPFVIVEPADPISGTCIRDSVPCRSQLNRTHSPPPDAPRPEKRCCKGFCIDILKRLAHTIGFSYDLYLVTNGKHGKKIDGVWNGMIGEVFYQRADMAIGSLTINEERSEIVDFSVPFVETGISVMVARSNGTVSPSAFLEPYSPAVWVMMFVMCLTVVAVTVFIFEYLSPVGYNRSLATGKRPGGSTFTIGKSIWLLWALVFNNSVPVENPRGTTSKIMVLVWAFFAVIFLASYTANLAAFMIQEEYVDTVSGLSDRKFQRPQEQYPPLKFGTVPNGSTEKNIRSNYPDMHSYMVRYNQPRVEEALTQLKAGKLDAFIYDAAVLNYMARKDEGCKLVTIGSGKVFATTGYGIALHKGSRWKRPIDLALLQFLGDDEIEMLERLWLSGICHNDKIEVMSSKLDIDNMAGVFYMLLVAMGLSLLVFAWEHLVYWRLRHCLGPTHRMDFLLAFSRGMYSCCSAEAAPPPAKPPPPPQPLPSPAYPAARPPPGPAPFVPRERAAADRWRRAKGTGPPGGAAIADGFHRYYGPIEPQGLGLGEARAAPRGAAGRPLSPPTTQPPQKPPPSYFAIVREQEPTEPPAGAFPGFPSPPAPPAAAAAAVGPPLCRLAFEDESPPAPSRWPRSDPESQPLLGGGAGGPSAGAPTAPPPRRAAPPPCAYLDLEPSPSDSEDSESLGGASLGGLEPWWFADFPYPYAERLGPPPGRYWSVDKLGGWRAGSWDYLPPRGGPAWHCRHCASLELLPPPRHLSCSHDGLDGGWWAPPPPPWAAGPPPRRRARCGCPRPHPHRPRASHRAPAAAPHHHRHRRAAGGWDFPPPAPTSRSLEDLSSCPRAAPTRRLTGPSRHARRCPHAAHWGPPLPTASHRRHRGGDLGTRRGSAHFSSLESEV
Protocol: as §1, §2

Emax ([1]; maximum potentiation, response without modulator = 100%, read-out: GluN2C EC50 (μM)/Max %: Max %): 125%
Emax ([2]; maximum potentiation, response without modulator = 100%, read-out: GluN2B EC50 (μM)/Max %: Max %): 141%
SMILES: CCOc1ccc(OCC2c3ccc(OC(C)C)cc3CCN2C(=O)c2cccc(Cl)c2)cc1 (stereo not shown) [1180-83]

GluN2C response % at 30 µM [3]: 127% at
EC50 ([4]; untitled tables after drawing 25 and drawing 36, read-out: EC50 (μM) GluN2B): 4.6 µM
GluN2D response % at 30 µM [5]: 101% at
SMILES: CC(C)Oc1ccc(OCC2c3ccc(OC(C)C)cc3CCN2C(=O)c2cccc(Cl)c2)cc1 (stereo not shown) [1180-264]

I30 μM/Icontrol (mean ± SEM, %) GluN2C [3]: 73%
I30 μM/Icontrol (mean ± SEM, %) GluN2B [4]: 75%
I30 μM/Icontrol (mean ± SEM, %) GluN2D [5]: 75%
SMILES: CCOc1ccc(OC[C@H]2c3ccc(OC(C)C)cc3CCN2C(=O)c2cccc(C(F)(F)F)c2)cc1 [(R)-(+)-1180-92]

I30 μM/Icontrol (mean ± SEM, %) GluN2C [3]: 92%
I30 μM/Icontrol (mean ± SEM, %) GluN2B [4]: 83%
I30 μM/Icontrol (mean ± SEM, %) GluN2D [5]: 93%
SMILES: CCOc1ccc(OC[C@H]2c3ccc(OC(C)C)cc3CCN2C(=O)c2ccc(Cl)c(Cl)c2)cc1 [(R)-(+)-1180-103]

I30 μM/Icontrol (mean ± SEM, %) GluN2C [3]: 103%
I30 μM/Icontrol (mean ± SEM, %) GluN2B [4]: 103%
I30 μM/Icontrol (mean ± SEM, %) GluN2D [5]: 86%
SMILES: CCOc1ccc(OC[C@H]2c3ccc(OC(C)C)cc3CCN2C(=O)c2cccc(F)c2)cc1 [(R)-(+)-1180-87]

Emax ([1]; Tables 11-13, read-out: EC50 & Max Effect: 2C Max (%)): 145%
EC50 & Max Effect: 2D Max (%) [5]: 188%
SMILES: COc1ccc(OCC2c3cc(OC)c(OC)cc3CCN2C(=O)c2cccc(Br)c2)cc1 (stereo not shown) [compound 1391]

GluN2C response % at 30 µM [3]: 114% at 30
GluN2B response % at 30 µM [4]: 88% at 30
GluN2D response % at 30 µM [5]: 131% at 30
SMILES: COc1ccc(OCC2c3ccc(OC)cc3CCN2C(=O)c2cnc(Cl)s2)cc1 (stereo not shown) [1180-241]

More lines, now with the values behind:

SMILES: CCOCC(=O)N1CCc2cc(OC)ccc2C1COc1ccc(OC)cc1 (stereo not shown) [1180-240]
GluN2C response % at 30 µM [3]: 115% at 30
GluN2B response % at 30 µM [4]: 100% at 30
GluN2D response % at 30 µM [5]: 114% at 30

SMILES: COc1ccc(OCC2c3cc(O)c(OC)cc3CCN2C(=O)C=CC(F)(F)F)cc1 (stereo not shown) [1180-328]
GluN2C response % at 30 µM [3]: 109 at 30%
GluN2B response % at 30 µM [4]: 100 at 30%
GluN2D response % at 30 µM [5]: 120 at 30%

SMILES: COc1ccc(OCC2c3ccc(OC)cc3CCN2C(=O)C=CC(F)(F)F)cc1 (stereo not shown) [1180-253]
EC50 ([3]; untitled tables after drawing 25 and drawing 36, read-out: EC50 (μM) GluN2C): 7 µM
GluN2B response % at 30 µM [4]: 101% at 30
EC50 ([5]; untitled tables after drawing 25 and drawing 36, read-out: EC50 (μM) GluN2D): 9 µM

SMILES: COc1ccc(OCC2c3ccc(OC)cc3CCN2C(=O)C=CCl)cc1 (stereo not shown) [1180-251]
GluN2C response % at 30 µM [3]: 99% at 30
GluN2B response % at 30 µM [4]: 96% at 30
GluN2D response % at 30 µM [5]: 88% at 30

SMILES: COc1ccc(OCC2c3cc(OC)c(OC)cc3CCN2C(=S)c2cccc(Cl)c2)cc1 (racemic) [1180-161]
EC50 & Max Effect: 2C (μM) [3]: Inactive
EC50 & Max Effect: 2D (μM) [5]: Inactive

SMILES: CCOc1ccc(OCC2c3ccc(OC(C)C)cc3CCN2C(=O)c2cccc(C(F)(F)F)c2)cc1 (stereo not shown) [1180-92]
EC50 ([2]; fitted when potentiation at 30 μM exceeded 120%, Tables 3, 5-7, read-out: EC50 (max.) (μM %) GluN2B: fitted EC50): 2.5 µM
Emax ([2]; percentage of the initial glutamate (100 μM) and glycine (30 μM) current, read-out: EC50 (max.) (μM %) GluN2B: fitted maximum response): 122%

SMILES: COc1ccc(OCC2c3cc(OC)c(OC)cc3CCN2C(=O)c2cccc(Cl)c2)cc1 (stereo not shown) [1390 (CIQ), reference compound]
EC50 & Max Effect: 2C Max (%) [3]: 215%
EC50 ([3]; read-out: EC50 & Max Effect: 2C): 2.9 µM
EC50 & Max Effect: 2D Max (%) [5]: 205%

SMILES: CC=CCC(=O)N1CCc2cc(OC)ccc2C1COc1ccc(OC)cc1 (stereo not shown) [1180-235]
GluN2C response % at 30 µM [3]: 184% at 30
GluN2B response % at 30 µM [4]: 103% at 30
GluN2D response % at 30 µM [5]: 222% at 30

SMILES: COc1ccc(OC[C@H]2c3cc(OC)c(OC)cc3CCN2C(=O)c2cccc(Cl)c2)cc1 [R-1390]
EC50 & Max Effect: 2C (μM) [3]: Inactive
EC50 & Max Effect: 2D (μM) [5]: Inactive
